This passage reports inhibition results from EP4559908A1, “HETEROARYL DERIVATIVE COMPOUND AND USE THEREOF” (S2CBio Inc., priority 2022, dated 2024).

For the assay, the target named is T1, human ANO6 (variant 5) (Homo sapiens, UniProt Q4KMQ2).
T1 construct: expressed in transfected cells; host or cells: Fischer rat thyroid (FRT) cells
T1 sequence (Q4KMQ2 1-931 isoform Q4KMQ2-2): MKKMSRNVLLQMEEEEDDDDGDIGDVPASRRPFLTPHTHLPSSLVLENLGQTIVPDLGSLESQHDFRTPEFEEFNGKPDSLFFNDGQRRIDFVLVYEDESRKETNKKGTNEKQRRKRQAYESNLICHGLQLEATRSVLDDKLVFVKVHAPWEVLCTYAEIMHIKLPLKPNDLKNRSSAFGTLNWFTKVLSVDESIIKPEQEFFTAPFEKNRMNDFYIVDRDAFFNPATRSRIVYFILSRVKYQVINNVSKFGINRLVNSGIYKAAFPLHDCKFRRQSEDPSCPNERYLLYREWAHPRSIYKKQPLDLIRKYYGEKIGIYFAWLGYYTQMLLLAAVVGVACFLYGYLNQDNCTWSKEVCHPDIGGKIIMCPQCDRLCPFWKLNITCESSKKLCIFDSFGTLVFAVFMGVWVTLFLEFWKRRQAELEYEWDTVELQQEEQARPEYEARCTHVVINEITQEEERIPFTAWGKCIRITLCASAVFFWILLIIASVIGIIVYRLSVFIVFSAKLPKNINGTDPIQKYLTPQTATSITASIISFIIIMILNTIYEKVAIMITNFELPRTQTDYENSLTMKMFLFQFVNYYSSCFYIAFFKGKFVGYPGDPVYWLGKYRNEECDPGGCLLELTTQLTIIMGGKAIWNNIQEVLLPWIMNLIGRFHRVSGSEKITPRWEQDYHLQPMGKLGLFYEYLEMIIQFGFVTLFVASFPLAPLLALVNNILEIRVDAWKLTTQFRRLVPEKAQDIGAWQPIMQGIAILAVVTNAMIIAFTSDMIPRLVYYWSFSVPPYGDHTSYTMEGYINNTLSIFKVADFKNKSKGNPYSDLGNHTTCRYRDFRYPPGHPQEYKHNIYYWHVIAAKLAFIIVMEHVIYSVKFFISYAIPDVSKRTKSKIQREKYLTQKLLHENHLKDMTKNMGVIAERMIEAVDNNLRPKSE
The assay can be described thus: Lact C2 assay (measuring phosphatidylserine externalization scramblase function). The following applies: FRT, FRT cells expressing human ANO6 (variant 5), ionomycin 10 µM, Lact-C2-GFP fluorescence, average of three tests; for inhibition at 0.05 µM: compound 50 nM, read-out: % Inhibition 50 nM; for inhibition at 0.1 µM: compound 100 nM; for inhibition at 1 µM: compound 1 µM, read-out: % Inhibition 1 µM. In kind it is cell-based. On the procedure:
Ionomycin (Alomonelab, cat. # I-700), DAPI (Sigma- Aldrich, cat. # D8417), paraformaldehyde (Biosesang, cat. #P2031), Lionheart FX automated fluorescence microscope (BioTek), Gen5™ software program (BioTek), and Image J analysis software program.
After the incubation, the cells were treated with compounds dissolved in DMSO to 1% v/v in each well at each concentration (50 nM, 100 nM, and 1 µM) and reacted for 10 minutes. Thereafter, each well was treated with ionomycin to a final concentration of 10 µM, allowed to react for 10 minutes, and then washed with 200 µL PBS. After washing, each well was treated with 50 µL of Lactadherin-C2 (Lact-C2)-GFP mixed in DMEM medium to a final concentration of 500 nM to stain phosphatidylserine, and cultured at 37°C for 10 minutes. After completion of the reaction, the cells were washed with 200 µL PBS, and fixed with 4% paraformaldehyde for 5 minutes at room temperature. For morphological analysis, DAPI solution was added, and the cells were incubated for 15 minutes, followed by washing with PBS. The fluorescence intensity of Lact-C2-GFP bound to phosphatidylserine on the cell surface was measured using an automated fluorescence microscope. For quantitative analysis of the fluorescence intensity of Lact-C2-GFP, BioTek Gen5™ software and Image J analysis software programs were used.
Phosphatidylserine externalization inhibitory activity (%) by the compound was calculated through the following analysis method. Specifically, the background fluorescence value was subtracted from the measured Lact-C2-GFP fluorescence value, and the fluorescence value of the ionomycin non-treatment group and the ionomycin-treatment group in the same row where each test group was located in a 96-well microplate were calculated. In order to calculate the inhibitory activity (%) by the compound, the relative inhibitory activity was calculated by setting the compound and ionomycin non-treatment group to 100% inhibitory activity and the ionomycin alone treatment group to 0% inhibitory activity.

As a reminder, the inhibition is the drop in the measured response relative to a control, in per cent. Regarding `c1cc(Nc2ccc(-c3ccncn3)cn2)cc(-c2nc3ccccc3[nH]2)c1` [Example 68, N-[3-(1H-benzo[d]imidazol-2-yl)phenyl]-5-(pyrimidin-4-yl)pyridin-2-amine], the inhibition at 0.05 µM is over 60% and the inhibition at 0.1 µM was over 60%.

As to `FC(F)(F)c1cnc2nc(-c3cccc(Nc4ccc(-c5cccnn5)cc4)c3)[nH]c2c1` [Example 234, N-(4-(pyridazin-3-yl)phenyl)-3-(6-(trifluoromethyl)-1H-imidazo[4,5-b]pyridin-2-yl)aniline], the inhibition at 0.05 µM was in the range of 30 to 60% and the inhibition at 1 µM was over 60%.

For the compound `Clc1ccc2nc(-c3cccc(Nc4ccc(-c5cccnn5)cc4)c3)[nH]c2c1` [Example 226, 3-(6-chloro-1H-benzo[d]imidazol-2-yl)-N-(4-(pyridazin-3-yl)phenyl)aniline], the inhibition at 0.05 µM was over 60%.

With `Brc1cc2[nH]c(-c3cccc(Nc4ccc(-c5cccnn5)cc4)c3)nc2cn1` [Example 218, 3-(6-bromo-1H-imidazo[4,5-c]pyridin-2-yl)-N-(4-(pyridazin-3-yl)phenyl)aniline], the inhibition at 0.05 µM lay in the range of 30 to 60%.

`Cc1cscc1-c1cnc(Nc2cccc(-c3nc4ccccc4[nH]3)c2)nc1` [Example 43, N-(3-(1H-benzo[d]imidazol-2-yl)phenyl)-5-(4-methylthiophen-3-yl)pyrimidin-2-amine]: the inhibition at 0.05 µM was over 60% and the inhibition at 0.1 µM was over 60%.

Regarding `Brc1ccc2nc(-c3cccc(Nc4ccc(-c5cccnn5)cc4)c3)[nH]c2c1` [Example 308, 3-(6-bromo-1H-benzo[d]imidazol-2-yl)-N-(4-(pyridazin-3-yl)phenyl)aniline], the inhibition at 0.05 µM was over 60% and the inhibition at 1 µM is over 60%.

For `Fc1cc(Br)c2[nH]c(-c3cccc(Nc4ccc(-c5ccccc5)nn4)c3)nc2c1` [Example 11, N-(3-(7-bromo-5-fluoro-1H-benzo[d]imidazol-2-yl)phenyl)-6-phenylpyridazin-3-amine], the inhibition at 0.1 µM fell in the range of 30 to 60% and the inhibition at 1 µM is over 60%.

Consider `FC(F)(F)Oc1cc2[nH]c(-c3cccc(Nc4ccc(-c5cccnn5)cc4)c3)nc2cn1` [Example 232, N-(4-(pyridazin-3-yl)phenyl)-3-(6-(trifluoromethoxy)-1H-imidazo[4,5-c]pyridin-2-yl)aniline], for which the inhibition at 0.05 µM was over 60% and the inhibition at 1 µM was over 60%.

For the compound `FC(F)(F)c1ccc2nc(-c3cccc(Nc4ccc(-c5ncccn5)cn4)c3)[nH]c2c1` [Example 100, 5-pyrimidin-2-yl-N-[3-[6-(trifluoromethyl)-1H-benzo[d]imidazol-2-yl]phenyl]pyridin-2-amine], the inhibition at 0.05 µM is over 60% and the inhibition at 1 µM was over 60%.

On to `Fc1ccc2nc(-c3cccc(Nc4ncc(-c5ncccn5)cn4)c3)[nH]c2c1` [Example 247, N-(3-(6-fluoro-1H-benzo[d]imidazol-2-yl)phenyl)-[2,5'-bipyrimidin]-2'-amine], for which the inhibition at 1 µM fell in the range of 30 to 60%.

`Fc1ccnc(-c2ccc(Nc3cccc(-c4nc5ccc(C(F)(F)F)cc5[nH]4)c3)cc2)c1` [Example 305, N-(4-(4-fluoropyridin-2-yl)phenyl)-3-(6-(trifluoromethyl)-1H-benzo[d]imidazol-2-yl)aniline]: the inhibition at 0.05 µM lay within 30 to 60% and the inhibition at 1 µM is over 60%.

For the compound `c1cc(Nc2ccc(-c3cccnn3)cc2)cc(-c2nc3ccccc3[nH]2)c1` [Example 21, 3-(1H-benzo[d]imidazol-2-yl)-N-(4-(pyridazin-3-yl)phenyl)aniline], the inhibition at 0.05 µM was over 60%, the inhibition at 0.1 µM was over 60% and the inhibition at 1 µM is over 60%.

On to `Fc1cc2[nH]c(-c3cccc(Nc4ccc(-c5cccnn5)cc4)c3)nc2cc1Cl` [Example 102, 3-(5-chloro-6-fluoro-1H-benzo[d]imidazol-2-yl)-N-(4-pyridazin-3-ylphenyl)aniline], for which the inhibition at 0.05 µM is over 60% and the inhibition at 1 µM is over 60%.

Consider `Fc1cc2nc(-c3cccc(Nc4ccc(-c5ccncn5)cc4)c3)[nH]c2cc1F` [Example 95, 3-(5,6-difluoro-1H-benzo[d]imidazol-2-yl)-N-(4-pyrimidin-4-ylphenyl)aniline], for which the inhibition at 0.05 µM is over 60% and the inhibition at 1 µM was over 60%.

On to `c1cc(Nc2ccc(-c3ccnnc3)cc2)cc(-c2nc3ccccc3[nH]2)c1` [Example 94, 3-(1H-benzo[d]imidazol-2-yl)-N-(4-pyridazin-4-ylphenyl)aniline], for which the inhibition at 1 µM is over 60%.

With `CC(C)(C)c1ccc2nc(-c3cccc(Nc4ccc(-c5ccccc5)nn4)c3)[nH]c2c1` [Example 3, N-[3-(6-tert-butyl-1H-benzo[d]imidazol-2-yl)phenyl]-6-phenylpyridazin-3-amine], the inhibition at 0.05 µM was over 60%, the inhibition at 0.1 µM is over 60% and the inhibition at 1 µM is over 60%.

Take `CNc1ccc2nc(-c3cccc(Nc4ccc(-c5cccnn5)cc4)c3)[nH]c2c1` [Example 279, N-methyl-2-(3-((4-(pyridazin-3-yl)phenyl)amino)phenyl)-1H-benzo[d]imidazol-6-amine]: the inhibition at 1 µM is 30 to 60%.

Regarding `COc1ccc2nc(-c3cccc(Nc4cnc(-c5ccccn5)cn4)c3)[nH]c2c1` [Example 299, N-(3-(6-methoxy-1H-benzo[d]imidazol-2-yl)phenyl)-5-(pyridin-2-yl)pyrazin-2-amine], the inhibition at 1 µM was over 60%.

As to `CN1CCN(c2ccc(-c3nc4ccc(C(F)(F)F)cc4[nH]3)cc2Nc2ncc(-c3cccnn3)cn2)CC1` [Example 176, N-(2-(4-methylpiperazin-1-yl)-5-(6-(trifluoromethyl)-lH-benzo[d]imidazol-2-yl)phenyl)-5-(pyridazin-3-yl)pyrimidin-2-amine], the inhibition at 1 µM lay within 30 to 60%.

On to `Fc1cc2nc(-c3cccc(Nc4ncc(-c5cccnn5)cn4)c3)[nH]c2cc1F` [Example 99, N-[3-(5,6-difluoro-1H-benzo[d]imidazol-2-yl)phenyl]-5-pyridazin-3-yl-pyrimidin-2-amine], for which the inhibition at 0.05 µM lay in the range of 30 to 60% and the inhibition at 1 µM was over 60%.

With `CN(C)c1ccc2nc(-c3cccc(Nc4ccc(-c5cccnn5)cc4)c3)[nH]c2c1` [Example 217, N,N-dimethyl-2-(3-((4-(pyridazin-3-yl)phenyl)amino)phenyl)-1H-benzo[d]imidazol-6-amine], the inhibition at 0.05 µM fell in the range of 30 to 60% and the inhibition at 1 µM was over 60%.

As to `Clc1cc2[nH]c(-c3cccc(Nc4cnc(-c5ccccn5)cn4)c3)nc2cn1` [Example 301, N-(3-(6-chloro-1H-imidazo[4,5-c]pyridin-2-yl)phenyl)-5-(pyridin-2-yl)pyrazin-2-amine], the inhibition at 1 µM is over 60%.

`Clc1cc2[nH]c(-c3cccc(Nc4ccc(-c5ccccn5)cc4)c3)nc2cn1` [Example 119, 3-(6-chloro-1H-imidazo[4,5-c]pyridin-2-yl)-N-[4-(2-pyridyl)phenyl]aniline]: the inhibition at 0.05 µM lay in the range of 30 to 60% and the inhibition at 1 µM was over 60%.
